Assay: Radioactive metabolites in plasma, urine and feces after single oral dose of [14C] compound (I) to monkeys
Format: in vivo, cynomolgus monkey
Details: for % Distribution of radioactive metabolites in pooled plasma, Monkey (4 h): oral 10 mg/kg [14C] compound (I), plasma 4 h; for Metabolites in Feces (0-168 hr), Monkey, % Dose / Metabolites in Feces (0-168 hr), Monkey, % Rad / Metabolites in Urine (0-168 hr), Monkey, % Dose / Metabolites in Urine (0-168 hr), Monkey, % Rad: oral 10 mg/kg; for Metabolites in Feces (0-168 hr), Monkey, % Dose / Metabolites in Feces (0-168 hr), Monkey, % Rad: pooled fecal extracts 0-168 hr; for Metabolites in Urine (0-168 hr), Monkey, % Dose / Metabolites in Urine (0-168 hr), Monkey, % Rad: pooled urine 0-168 hr
Experimental: A separate bile-duct cannulated (BDC) monkey study was also conducted.
Plasma samples were segregated by collection time and equal volumes of individual plasma samples at a given time point were combined for biotransformation profiling.
The C-14 label was on the carbon-2 of the thiazole ring.
HPLC was performed on an Agilent 1100™ system equipped with binary pumps, autoinjector, and a column heater. A Phenomenex Synergy Polar-RP® column (4.6×250 mm, 5 micron) was used for metabolite separation. All HPLC analyses were performed at 1 mL/min flow rate at 35° C. The HPLC mobile phase consisted of (A) water with 0.1% formic acid and (B) acetonitrile with 0.1% formic acid.
Each fraction of column eluent was evaporated to dryness on a Savant Speed-Vac (Savant Instruments Inc., Holbrook, N.Y.) and counted for radioactivity with a Packard Top Count® microplate scintillation analyzer (Packard Biosciences, Downers Grove, Ill.).
The volumes of pooled plasma processed for HPLC analysis for rat, monkey and human ranged between 1.5 and 8.0 mL. Pooled plasma samples were extracted with methanol/acetonitrile (1:1) at a ratio of 2 volumes solvent to 1 volume of plasma. The mixtures were vortex mixed, sonicated for 5 min, and centrifuged at 3500 rpm for 10 min. The supernatants were transferred into new tubes. The remaining pellets were extracted two more times with 3 mL of methanol/acetonitrile (1:1). The supernatants were combined and evaporated to dryness in a Savant Speed-Vac (Savant Instruments, Inc., Holbrook, N.Y.). The residue was reconstituted into 0.35 to 0.45 mL of 30% acetonitrile in water, vortex mixed and centrifuged at 13000 rpm for 5 min (American Scientific Products Biofuge A centrifuge, Heraeus Sepatech GmbH, Germany). The supernatant was injected onto the HPLC for profiling. Aliquots of the reconstituted samples (30 μl) were also counted on the liquid scintillation counter (LSC) to determine the recovery of radioactivity.
The pooled monkey and human urine samples (3-5 mL) were extracted with 2 volumes of acetonitrile/acetone (1:1). The mixtures were vortex mixed, sonicated and centrifuged at 3500 rpm for 10 min. The supernatants were evaporated to dryness. The residue was suspended in 0.3-0.5 mL of 30% acetonitrile in water and centrifuged at 13000 rpm for 5 min. Aliquots of the supernatants were injected onto the HPLC or analyzed by LSC for radioactivity recovery. Pooled urine samples from BDC monkeys and rats were centrifuged at 13000 rpm for 10 min and injected onto the HPLC for profiling without further treatment.
The amount of fecal homogenate used for analysis was 0.20, 0.19 and 0.51 g for rat, monkey and human, respectively. Each pooled fecal homogenate was extracted by addition of 3 volumes of acetonitrile/methanol (1:1) to 1 volume of fecal homogenate and mixed on a vortex mixer. The mixture was sonicated for 5 min and then centrifuged at 3000 rpm for 10 min. The supernatants were removed and saved. The extraction was repeated two additional times and the supernatants were combined and evaporated to dryness on a Savant Speed-Vac. […] An aliquot of the supernatant was injected onto the HPLC or analyzed by LSC for radioactivity recovery.
The LC/MS system used for analysis of plasma, urine, bile, and fecal samples consisted of an Agilent 1100™ HPLC system connected to a Finnigan LCQ-DecaXP mass spectrometer. Samples were analyzed using positive electrospray ionization. The capillary temperature used for analysis was 320° C., and the nitrogen gas flow rate, spray current, and voltages were adjusted to give maximum sensitivity. The HPLC conditions were described in section 3.3.1.
Counts per min (CPM) were determined on a Packard TopCount NXT microplate scintillation and luminescence counter. For each injection, the average CPM value (2-4 CPM) obtained from fractions between 2-3 min (column void) in the chromatogram was subtracted from the CPM value of each fraction.

Row | Structure (SMILES) | % Distribution of radioactive metabolites in pooled plasma, Monkey (4 h) [%] | Metabolites in Feces (0-168 hr), Monkey, % Dose [%] | Metabolites in Feces (0-168 hr), Monkey, % Rad [%] | Metabolites in Urine (0-168 hr), Monkey, % Dose [%] | Metabolites in Urine (0-168 hr), Monkey, % Rad [%]
1 | Cc1nc(Nc2ncc(C(=O)Nc3c(C)cccc3Cl)s2)cc(N2CCNCC2)n1 [M4 (II)] | 3.0 | 2.9 | 3.8 | 0.05 | 1.7
2 | Cc1nc(Nc2ncc(C(=O)Nc3c(C)cc(O)cc3Cl)s2)cc(N2CCN(CCO)CC2)n1 [M20 (V)] | 2.8 | 11.7 | 15.2 | 0.02 | 0.6
3 | Cc1nc(Nc2ncc(C(=O)Nc3c(C)cccc3Cl)s2)cc(N2CCN(CC(=O)O)CC2)n1 [M6 (IV), 2-(4-(6-(5-((2-Chloro-6-methylphenyl)carbamoyl)thiazol-2-ylamino)-2-methylpyrimidin-4-yl)piperazin-1-yl)acetic acid] | 2.7 | 14.0 | 18.2 | 0.06 | 2.2
4 | Cc1nc(Nc2ncc(C(=O)Nc3c(Cl)cccc3CO)s2)cc(N2CCN(CCO)CC2)n1 [M24 (VI), N-(2-chloro-6-(hydroxymethyl)phenyl)-2-(6-(4-(2-hydroxyethyl)piperazin-1-yl)-2-methylpyrimidin-4-ylamino)thiazole-5-carboxamide] | 0.7 | 6.6 | 8.6 | 0.06 | 1.9
5 | Cc1nc(Nc2ncc(C(=O)Nc3c(C)cccc3Cl)s2)cc(N2CC[N+]([O-])(CCO)CC2)n1 [M5 (III)] | 2.6 |  |  | 1.1 | 35.8
6 | Cc1nc(Nc2ncc(C(=O)Nc3c(C)cccc3Cl)s2)cc(N2CCN(CCO)CC2)n1 [Parent (I), N-(2-Chloro-6-methylphenyl)-2-[[6-[4-(2-hydroxyethyl)-1-piperazinyl]-2-methyl-4-pyrimidinyl]amino]-5-thiazolecarboxamide] | 32.1 | 24.7 | 32.2 | 0.6 | 21.2
